Assay results: ChEMBL document CHEMBL3124816, “Preparation and optimization of new 4-(2-(indolin-1-yl)-2-oxoethyl)-2-morpholinothiazole-5-carboxylic acid and amide derivatives as potent and selective PI3Kβ inhibitors” (Bioorg Med Chem Lett, 2014)

Experiments:
[1] = Thermodynamic solubility of the compound in 50 mM Phosphate buffer at pH 7.4 after 16 hrs by HPLC analysis; type: physicochemical; conditions: buffer, pH 7.4, 16 h; 16 h
[2] = biological target: T1, Phosphatidylinositol 4,5-bisphosphate 3-kinase catalytic subunit beta isoform (Homo sapiens, UniProt P42338); experiment: Inhibition of PI3Kbeta in human PTEN-deficient PC3 cells assessed as Akt phosphorylation at S473; type: cell-based, PC-3
T1 sequence (P42338 whole entry, canonical isoform): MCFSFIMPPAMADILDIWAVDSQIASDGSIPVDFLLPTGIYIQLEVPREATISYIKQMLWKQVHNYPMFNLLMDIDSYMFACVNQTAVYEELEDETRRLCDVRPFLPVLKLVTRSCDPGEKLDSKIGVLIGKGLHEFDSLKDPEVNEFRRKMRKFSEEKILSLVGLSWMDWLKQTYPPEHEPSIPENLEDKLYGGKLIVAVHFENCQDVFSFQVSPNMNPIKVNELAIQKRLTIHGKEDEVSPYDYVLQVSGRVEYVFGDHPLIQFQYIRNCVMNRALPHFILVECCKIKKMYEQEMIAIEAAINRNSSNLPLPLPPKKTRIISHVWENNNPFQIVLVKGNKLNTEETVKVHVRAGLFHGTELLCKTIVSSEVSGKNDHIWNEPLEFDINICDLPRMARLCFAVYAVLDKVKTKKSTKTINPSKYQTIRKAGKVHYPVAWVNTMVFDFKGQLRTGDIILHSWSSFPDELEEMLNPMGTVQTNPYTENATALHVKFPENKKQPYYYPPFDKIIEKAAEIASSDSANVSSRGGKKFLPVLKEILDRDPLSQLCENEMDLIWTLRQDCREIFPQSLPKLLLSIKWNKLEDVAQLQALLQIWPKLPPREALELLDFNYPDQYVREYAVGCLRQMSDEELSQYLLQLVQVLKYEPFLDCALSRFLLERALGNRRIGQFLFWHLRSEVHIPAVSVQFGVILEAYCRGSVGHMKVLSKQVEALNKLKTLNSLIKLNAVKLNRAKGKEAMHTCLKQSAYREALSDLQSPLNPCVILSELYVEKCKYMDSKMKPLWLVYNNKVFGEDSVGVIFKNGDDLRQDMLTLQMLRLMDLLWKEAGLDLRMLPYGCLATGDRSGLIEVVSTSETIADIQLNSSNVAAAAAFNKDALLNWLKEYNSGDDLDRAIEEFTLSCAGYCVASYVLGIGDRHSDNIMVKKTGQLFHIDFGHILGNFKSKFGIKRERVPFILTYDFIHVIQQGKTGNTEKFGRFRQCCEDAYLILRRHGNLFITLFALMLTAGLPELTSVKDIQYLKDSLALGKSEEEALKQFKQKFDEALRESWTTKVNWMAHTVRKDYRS

[3] = biological target: Phosphatidylinositol 4,5-bisphosphate 3-kinase catalytic subunit gamma isoform (Homo sapiens, UniProt P48736); experiment: Inhibition of human PI3Kgamma after 15 mins
Phosphatidylinositol 4,5-bisphosphate 3-kinase catalytic subunit gamma isoform, sequence (P48736 whole entry, canonical isoform): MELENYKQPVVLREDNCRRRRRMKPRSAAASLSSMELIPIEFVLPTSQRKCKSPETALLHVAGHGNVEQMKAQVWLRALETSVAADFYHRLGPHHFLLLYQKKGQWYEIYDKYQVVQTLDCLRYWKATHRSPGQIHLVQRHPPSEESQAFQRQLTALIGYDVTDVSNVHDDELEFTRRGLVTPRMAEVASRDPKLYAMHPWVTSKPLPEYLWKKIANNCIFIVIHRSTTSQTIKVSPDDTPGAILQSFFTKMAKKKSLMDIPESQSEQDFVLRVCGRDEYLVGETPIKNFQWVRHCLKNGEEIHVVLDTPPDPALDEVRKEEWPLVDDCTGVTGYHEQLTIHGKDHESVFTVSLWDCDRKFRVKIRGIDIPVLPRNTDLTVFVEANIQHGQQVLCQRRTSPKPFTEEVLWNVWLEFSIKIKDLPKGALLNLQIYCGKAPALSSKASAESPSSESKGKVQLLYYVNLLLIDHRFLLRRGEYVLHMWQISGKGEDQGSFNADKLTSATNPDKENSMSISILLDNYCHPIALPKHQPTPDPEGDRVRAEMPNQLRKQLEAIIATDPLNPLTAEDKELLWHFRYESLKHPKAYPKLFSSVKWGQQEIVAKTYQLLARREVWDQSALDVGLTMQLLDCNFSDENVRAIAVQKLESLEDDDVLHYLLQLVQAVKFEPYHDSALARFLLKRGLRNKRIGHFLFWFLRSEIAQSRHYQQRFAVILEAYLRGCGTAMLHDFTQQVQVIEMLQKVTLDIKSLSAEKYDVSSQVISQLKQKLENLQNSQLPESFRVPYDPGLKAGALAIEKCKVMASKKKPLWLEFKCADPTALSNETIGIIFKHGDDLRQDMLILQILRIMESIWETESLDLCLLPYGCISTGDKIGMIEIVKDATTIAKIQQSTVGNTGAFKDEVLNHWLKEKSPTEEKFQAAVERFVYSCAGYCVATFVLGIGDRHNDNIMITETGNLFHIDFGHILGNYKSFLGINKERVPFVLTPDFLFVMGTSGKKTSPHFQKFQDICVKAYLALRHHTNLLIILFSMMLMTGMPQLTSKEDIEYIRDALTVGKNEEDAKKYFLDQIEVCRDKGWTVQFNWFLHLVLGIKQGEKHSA

[4] = biological target: T2, Phosphatidylinositol 4,5-bisphosphate 3-kinase catalytic subunit delta isoform (Homo sapiens, UniProt O00329); experiment: Inhibition of human PI3Kdelta after 15 mins
T2 sequence (O00329 whole entry): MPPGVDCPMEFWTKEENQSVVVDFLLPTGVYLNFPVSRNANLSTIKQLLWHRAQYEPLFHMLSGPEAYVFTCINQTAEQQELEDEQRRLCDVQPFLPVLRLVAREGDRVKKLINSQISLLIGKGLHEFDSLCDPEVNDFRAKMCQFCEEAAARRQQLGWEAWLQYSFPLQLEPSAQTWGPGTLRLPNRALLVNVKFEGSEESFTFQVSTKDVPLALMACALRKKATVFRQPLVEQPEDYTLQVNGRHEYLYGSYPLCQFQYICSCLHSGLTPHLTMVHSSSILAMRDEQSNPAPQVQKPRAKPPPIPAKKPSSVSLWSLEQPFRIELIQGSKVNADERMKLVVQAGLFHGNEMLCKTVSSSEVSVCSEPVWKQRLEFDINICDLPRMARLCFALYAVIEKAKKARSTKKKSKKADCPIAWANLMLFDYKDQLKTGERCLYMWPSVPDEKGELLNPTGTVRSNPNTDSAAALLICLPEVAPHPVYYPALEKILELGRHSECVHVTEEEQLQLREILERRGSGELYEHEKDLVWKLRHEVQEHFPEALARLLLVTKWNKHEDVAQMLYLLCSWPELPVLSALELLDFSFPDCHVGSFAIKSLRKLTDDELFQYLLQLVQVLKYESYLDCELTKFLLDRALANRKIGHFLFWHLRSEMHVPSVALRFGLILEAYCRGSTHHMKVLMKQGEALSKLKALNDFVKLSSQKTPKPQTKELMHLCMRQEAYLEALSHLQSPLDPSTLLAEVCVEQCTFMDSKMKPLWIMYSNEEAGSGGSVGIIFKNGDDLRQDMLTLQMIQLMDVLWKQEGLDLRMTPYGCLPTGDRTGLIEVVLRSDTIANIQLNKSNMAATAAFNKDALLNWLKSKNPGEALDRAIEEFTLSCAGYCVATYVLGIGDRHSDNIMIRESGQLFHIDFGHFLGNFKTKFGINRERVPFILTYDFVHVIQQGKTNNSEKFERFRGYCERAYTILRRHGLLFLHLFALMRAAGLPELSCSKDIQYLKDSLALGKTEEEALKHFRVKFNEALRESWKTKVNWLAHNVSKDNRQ

[5] = biological target: T1, Phosphatidylinositol 4,5-bisphosphate 3-kinase catalytic subunit beta isoform; experiment: Inhibition of human PI3Kbeta after 15 mins
[6] = biological target: Phosphatidylinositol 4,5-bisphosphate 3-kinase catalytic subunit alpha isoform (Homo sapiens, UniProt P42336); experiment: Inhibition of human PI3Kalpha after 15 mins
Phosphatidylinositol 4,5-bisphosphate 3-kinase catalytic subunit alpha isoform, sequence (P42336 whole entry, canonical isoform): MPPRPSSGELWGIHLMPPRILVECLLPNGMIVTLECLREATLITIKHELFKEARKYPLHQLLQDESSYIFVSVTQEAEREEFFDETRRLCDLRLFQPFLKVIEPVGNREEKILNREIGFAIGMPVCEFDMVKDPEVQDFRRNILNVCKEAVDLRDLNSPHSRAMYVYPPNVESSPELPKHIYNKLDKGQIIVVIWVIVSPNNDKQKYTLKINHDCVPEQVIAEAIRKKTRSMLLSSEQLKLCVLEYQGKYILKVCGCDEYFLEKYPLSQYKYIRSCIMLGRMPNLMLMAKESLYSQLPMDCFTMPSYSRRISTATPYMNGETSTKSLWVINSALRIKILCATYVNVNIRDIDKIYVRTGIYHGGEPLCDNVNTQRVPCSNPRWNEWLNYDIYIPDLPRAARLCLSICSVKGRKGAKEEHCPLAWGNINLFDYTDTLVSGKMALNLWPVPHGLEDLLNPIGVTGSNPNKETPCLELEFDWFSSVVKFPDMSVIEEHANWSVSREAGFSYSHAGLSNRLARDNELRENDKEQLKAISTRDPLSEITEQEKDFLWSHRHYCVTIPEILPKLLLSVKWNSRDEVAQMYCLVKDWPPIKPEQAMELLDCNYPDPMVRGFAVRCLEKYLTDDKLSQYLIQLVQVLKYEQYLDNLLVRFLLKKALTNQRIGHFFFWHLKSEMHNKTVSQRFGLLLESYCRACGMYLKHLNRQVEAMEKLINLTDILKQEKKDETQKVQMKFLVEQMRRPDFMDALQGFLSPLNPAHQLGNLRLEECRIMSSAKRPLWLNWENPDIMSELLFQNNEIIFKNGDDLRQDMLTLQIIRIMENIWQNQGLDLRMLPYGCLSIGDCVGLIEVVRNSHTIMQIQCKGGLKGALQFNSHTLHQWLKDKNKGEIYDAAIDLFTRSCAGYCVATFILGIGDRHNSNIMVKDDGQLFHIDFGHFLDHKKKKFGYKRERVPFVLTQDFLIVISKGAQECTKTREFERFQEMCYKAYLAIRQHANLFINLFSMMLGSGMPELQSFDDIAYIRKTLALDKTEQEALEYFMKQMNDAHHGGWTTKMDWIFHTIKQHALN

[7] = Plasma protein binding in mouse; type: ADME, organism-based; conditions: read-out: PPB (converted)
[8] = Plasma concentration in SCID mouse harboring human PTEN-deficient PC3 cells at 150 mg/kg, po after 16 hrs; type: ADME, organism-based, PC-3; parameters: dose 150 mg/kg, route oral
[9] = Plasma concentration in SCID mouse harboring human PTEN-deficient PC3 cells at 150 mg/kg, po after 7 hrs; type: ADME, organism-based, PC-3; parameters: dose 150 mg/kg, route oral
[10] = Plasma concentration in SCID mouse harboring human PTEN-deficient PC3 cells at 150 mg/kg, po after 1 hr; type: ADME, organism-based, PC-3; parameters: dose 150 mg/kg, route oral
[11] = Oral bioavailability in Sprague-Dawley rat at 10 mg/kg; type: ADME, organism-based; conditions: in vivo
[12] = Terminal elimination half life in Sprague-Dawley rat at 3 mg/kg, iv; type: ADME, organism-based; parameters: dose 3 mg/kg, route intravenous; conditions: in vivo, read-out: beta t1/2 (converted)
[13] = Volume of distribution at steady state in Sprague-Dawley rat at 3 mg/kg, iv; type: ADME, organism-based; parameters: dose 3 mg/kg, route intravenous; conditions: in vivo, read-out: Vdss
[14] = Drug metabolism in rat liver microsomes assessed as compound lability; type: ADME; conditions: read-out: Drug metabolism
[15] = Clearance in Sprague-Dawley rat at 3 mg/kg, iv; type: ADME, organism-based; parameters: dose 3 mg/kg, route intravenous; conditions: in vivo
[16] = Terminal elimination half life in Sprague-Dawley rat at 10 mg/kg, po; type: ADME, organism-based; parameters: dose 10 mg/kg, route oral; conditions: in vivo, read-out: beta t1/2 (converted)
[17] = Tmax in Sprague-Dawley rat at 10 mg/kg, po; type: ADME, organism-based; parameters: dose 10 mg/kg, route oral; conditions: in vivo
[18] = AUC in Sprague-Dawley rat at 10 mg/kg, po; type: ADME, organism-based; parameters: dose 10 mg/kg, route oral; conditions: plasma
[19] = Cmax in Sprague-Dawley rat at 10 mg/kg, po; type: ADME, organism-based; parameters: dose 10 mg/kg, route oral; conditions: in vivo
[20] = Drug metabolism in mouse liver microsomes assessed as compound lability; type: ADME, Microsome; conditions: microsomes
[21] = Apparent permeability of the compound in human Caco2 cells; type: ADME, cell-based; conditions: Caco-2

Therm_solubility [1]: 3.795 mM | IC50 [2]: 140 nM | IC50 [3]: 4.35 µM | IC50 [4]: 63 nM | IC50 [5]: 10 nM | IC50 [6]: 395 nM | fraction unbound [7]: 0.015 | concentration at 16 h [8]: 3000 nM | concentration at 7 h [9]: 79 µM | concentration at 1 h [10]: 181 µM | bioavailability [11]: 99% | half-life [12]: 228 min | Vd [13]: 0.65 L/kg | metabolised [14]: 7% | clearance [15]: 4.17 mL/min/kg | half-life [16]: 378 min | Tmax [17]: 15 min | AUC [18]: 41000 ng·h/mL | Cmax [19]: 15100 ng/mL | Drug metabolism [20]: 17% | Papp [21]: 0.5 ×10⁻⁶ cm/s
Compound: CC1Cc2c(Br)cccc2N1C(=O)Cc1nc(N2CCOCC2)sc1C(=O)O (single isomer, unassigned; enantiomer 1)
